Experimental data as given in patent publication US6229029A, “11β-aryl substituted 14,17-ethanoestratriens, method for the production of these compounds and their use in the production of medicaments” (Schering Aktiengesellschaft, priority 1997, dated 2001).

Assays:
bone / uterus of rats = assay: Dissociation of bone action/uterus action (FIG. 7); assay type: in vivo, rat; conditions: bone action vs uterus epithelial height, relative to 17β-estradiol
Text: There, for compounds A, B and V, their bone-protecting actions are compared to the action of estrogen on the uterus (parameter: uterus epithelial height) as a function of dosage, in each case relative to the action of 17β-estradiol.

uterus of infant rats [1] = assay: Anti-uterus growth test in infant rats (antiestrogenic action); assay type: in vivo, rat; conditions: with 0.3 μg/animal/day 17β-estradiol
Text: (§1) The influence of the compounds according to the invention on the uterus was examined in the uterus growth test (estrogenic action) and in the anti-uterus growth test (antiestrogenic action), both performed on infant rats.
The uterus of infant estrogen-substituted rats can be used as a test model to detect a direct action of substances with antiestrogenic properties. The parameter of the estrogenic action is the uterus growth that is induced by estradiol in infant rats and that is inhibited by simultaneous administration of a substance with antiestrogenic action.
The test substances are treated s.c. on 3 successive days (d1-d3) in combination with a substitution dose of 0.3 μg/animal/day of 17β-estradiol. As a positive control, 17β-estradiol alone is used; the vehicle group is used as a negative control. On day 4 (d4), the animals are sacrificed, uteri and vaginae are prepared outside and weighed. The organ weights are converted into mg/100 g of body weight, and then the mean and the standard deviation for each dosage are calculated. The inhibition of the uterus or vaginal growth that is induced by 17β-estradiol is indicated in % as inhibition.

uterus of infant rats [2] = assay: Uterus growth test on infant rats (estrogenic action); assay type: in vivo, rat; conditions: for Epithelial Height % E2 / Uterus Weight % E2: 3 days, infant rats; for estrogenic action in the uterus (in words): uterus growth test
Text: as §1
In infant animals, both uterus and vagina show one of the estrogenic activity-dependent weight increases in their treatment with an estrogenically active substance. In the uterus, under estrogenic action, moreover, it results in a proliferation and height increase of the luminal epithelium.
Immature, normal rats (body weight 40-50 g) receive the substance s.c. over 3 days (d1-d3). On day 4 (d4), the animals are sacrificed with CO2. The uteri are prepared outside and weighed. A piece of the uterus, preferably a uterine horn, is set in formaldehyde for the histological evaluation and embedded in paraffin. The stimulation of the organ weights (relative to mg/100 g of body weight) and the epithelial height are indicated in percentage stimulation in comparison to the reference compound 17β-estradiol. (Substitution dose E2 0.3 μg/animal).

[3] = tested on: bone (distal femur / proximal tibia) of ovariectomized rats; assay: Bone studies in ovariectomized rats: bone density by pQCT; assay type: in vivo, rat; conditions: for % of Action of E2 (bone density tibia) / Bone Density Tibia: Table 7, proximal tibia
estrogen receptors = biological target: T1, estrogen receptors (Homo sapiens, UniProt P03372); assay: Transactivation assay in HeLa cells (partial estrogenic action, rPR-TK); assay type: cell-based; conditions: rPR-TK reporter, read-out: Agonism HELA (rPR-TK)
T1 construct: expressed in transfected cells; host or cells: HeLa cells
Experimental: The partial estrogenic action was also determined by transactivation assays. HeLa cells were […] with estrogen receptors and a reporter gene, which consists of the estrogen-response element of the progesterone receptor and the CAT-gene. The test was performed as described: Savouret et al., EMBO J. 10, 1875-1883 (1991).

[4] = tested on: trabecular bone (proximal tibia) of ovariectomized rats; assay: Bone studies in ovariectomized rats: trabecular bone surface area (TB/TV), histological, proximal tibia; assay type: in vivo, rat; conditions: 28 days
Experimental: 3-month-old female rats are ovariectomized and treated once daily with the test compound immediately after the operation for 28 days. The administration is done subcutaneously in castor oil/benzyl benzoate or arachis oil/ethanol. The animals are sacrificed on the day after the last administration, and femurs, tibiae and uteri are removed. The uteri are weighed, fixed and worked up for histological studies. The determination of the bone density is carried out ex vivo on prepared long bones with use of pQCT (Quantitative Computer Tomography). The measurements are performed at a distance of 5-7 mm from the ball of the joint on the distal femur or the proximal tibia.
As an alternative, the action on the bone is determined by measuring the trabecular bone surface area of the secondary spongiosa in histological preparations of the distal femur or the proximal tibia. The result is expressed as the proportion, in percent, of the trabecular bone surface area in the measured total bone surface area ([…]). The bone density that is measured with use of QCT and the trabecular bone surface area that is determined in the histological section correlate well to one another. A comparison of the two measurement variables is therefore permissible.
About 50% of the bone density of the animals is lost by the ovariectomy. […] In Table 4 and FIG. 2, the results of this test for doses of 0.1-100 μg/animal/day are presented. The bone density was measured on the distal femur; for comparison, the trabecular bone surface area in the proximal tibia was measured. The data that are contained in Table 4 mean specifically:
TB/TV trabecular bone surface area/total bone surface area; histologically determined
For compound B according to the invention, their bone-protecting action was also determined (Table 6). For this purpose, the parameter of TB/TV was determined, which, however, with respect to the informational value for the bone-protecting activity correlates well to the parameter of BMD-qCT that is determined for compounds A and V. This can be ascertained from Table 4; both parameters were determined for compound A.

human estrogen receptor = biological target: T2, human estrogen receptor (Homo sapiens, UniProt P03372); assay: Transactivation assay in HeLa cells (antiestrogenic action, vit-TK-CAT reporter); assay type: cell-based; conditions: in the presence of 0.1 nM estradiol, read-out: Antagonism IC50, HELA
T2 construct: expressed in transfected cells; host or cells: HeLa cells
T2 sequence (P03372 1-595): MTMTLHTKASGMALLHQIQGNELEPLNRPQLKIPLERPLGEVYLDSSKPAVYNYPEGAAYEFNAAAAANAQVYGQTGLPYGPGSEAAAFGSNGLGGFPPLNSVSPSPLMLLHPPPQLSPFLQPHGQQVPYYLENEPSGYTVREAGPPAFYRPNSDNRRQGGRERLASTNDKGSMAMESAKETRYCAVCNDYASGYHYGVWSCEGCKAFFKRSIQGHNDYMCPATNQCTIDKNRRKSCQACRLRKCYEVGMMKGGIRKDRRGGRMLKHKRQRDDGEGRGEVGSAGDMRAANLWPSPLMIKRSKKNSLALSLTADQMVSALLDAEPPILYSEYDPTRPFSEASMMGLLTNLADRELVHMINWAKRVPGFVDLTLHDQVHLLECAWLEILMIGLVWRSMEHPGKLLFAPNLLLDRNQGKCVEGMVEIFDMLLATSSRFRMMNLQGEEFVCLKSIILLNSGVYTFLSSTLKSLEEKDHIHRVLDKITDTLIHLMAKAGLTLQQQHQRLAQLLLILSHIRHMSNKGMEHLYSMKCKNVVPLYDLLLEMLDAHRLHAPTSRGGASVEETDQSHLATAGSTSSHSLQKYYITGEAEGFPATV

[5] = 100 μg/animal/day s.c., 28 days
[6] = 250 μg/animal/day s.c., 28 days
[7] = Table 6, tibia, 0.3 μg/animal/day s.c.
[8] = Table 4, distal femur, 0.3 μg/animal/day s.c., 28 days
[9] = Table 5, proximal tibia, 0.3 μg/animal/day s.c., 28 days
[10] = 0.3 μg/animal/day s.c., 28 days
[11] = Table 6, tibia, 1 μg/animal/day s.c.
[12] = Table 6, tibia, 10 μg/animal/day s.c.
[13] = Table 6, tibia, 100 μg/animal/day s.c.

**Q.** What does the source list for C[C@]12C[C@H](c3ccc(OCCCCC[S+]([O-])Cc4ccccn4)cc3)[C@@H]3c4ccc(O)cc4CC[C@H]3[C@@H]1CC[C@@H]2O (stereo partly drawn) [Compound V, reference compound]?
**A.** dissociation of bone-protecting action from estrogen action on the uterus (in words) (bone / uterus of rats): the two curves coincide; Uterus Weight % of Inhibition (uterus of infant rats [1]; 0.3 mg/kg s.c.): 57%; Epithelial Height % E2 (uterus of infant rats [2]; 0.03 mg/kg s.c.): 18 % E2; Uterus Weight % E2 (uterus of infant rats [2]; 0.03 mg/kg s.c.): 28 % E2; Epithelial Height % E2 (uterus of infant rats [2]; 0.3 mg/kg s.c.): 33 % E2; Uterus Weight % E2 (uterus of infant rats [2]; 0.3 mg/kg s.c.): 32 % E2; Epithelial Height % E2 (uterus of infant rats [2]; 3 mg/kg s.c.): 27 % E2; Uterus Weight % E2 (uterus of infant rats [2]; 3 mg/kg s.c.): 19 % E2; estrogenic action in the uterus (in words) (uterus of infant rats [2]; s.c.): low estrogenic action; % of Action of E2 (bone density tibia) ([3]; 10 μg/animal/day s.c., 28 days): 40%; Bone Density Tibia ([3]; 10 μg/animal/day s.c., 28 days): 337.3 mg Ca/ccm; % of Action of E2 (bone density tibia) [3, 5]: 34.4%; Bone Density Tibia [3, 5]: 331.2 mg Ca/ccm; % of Action of E2 (bone density tibia) [3, 6]: 74%; Bone Density Tibia [3, 6]: 374.3 mg Ca/ccm; dose with which an action of about 80% of 17β-estradiol on trabecular bone is achieved ([3]; proximal tibia, s.c.): 250 μg/animal/day; Emax (estrogen receptors): 37%

**Q.** What does the source list for C[C@]12CC[C@@H]3c4ccc(O)cc4CC[C@H]3[C@@H]1CC[C@@H]2O [17β-estradiol, reference compound]?
**A.** TB/TV (Tibia) ([4]; Table 4, proximal tibia, 0.3 μg/animal/day s.c.): 34.0%; % of Action of E2 (TB/TV) [4, 7]: 100%; TB/TV (Tibia) [4, 7]: 26.0%; % of Action of E2 (bone density femur) [3, 8]: 100%; Bone Density Femur [3, 8]: 361.7 mg Ca/ccm; % of Action of E2 (bone density) [3, 9]: 100%; Bone Density [3, 9]: 375.2 mg Ca/ccm; % of Action of E2 (bone density tibia) [3, 10]: 100%; Bone Density Tibia [3, 10]: 402.9 mg Ca/ccm

**Q.** What does the source list for C[C@]12C[C@H](c3ccc(OCCCCC[S+]([O-])Cc4ccccn4)cc3)[C@@H]3c4ccc(O)cc4CC[C@H]3[C@]13CC[C@@]2(O)CC3 (stereo partly drawn) [Compound B, 14α,17α-ethano-11β-{4-[5-(2-pyridinomethylsulfinyl)pentyloxy]phenyl}-1,3,5(10)-estratriene-3,17β-diol]?
**A.** % of Action of E2 (TB/TV) [4, 11]: 52%; TB/TV (Tibia) [4, 11]: 19.6%; % of Action of E2 (TB/TV) [4, 12]: 47%; TB/TV (Tibia) [4, 12]: 18.9%; % of Action of E2 (TB/TV) [4, 13]: 45%; TB/TV (Tibia) [4, 13]: 18.6%; dissociation of bone-protecting action from estrogen action on the uterus (in words) (bone / uterus of rats): considerably dissociated; Uterus Weight % of Inhibition (uterus of infant rats [1]; 0.1 mg/kg s.c.): 32%; Uterus Weight % of Inhibition (uterus of infant rats [1]; 1 mg/kg s.c.): 83%; Uterus Weight % of Inhibition (uterus of infant rats [1]; 10 mg/kg s.c.): 100%; Epithelial Height % E2 (uterus of infant rats [2]; 0.01 mg/kg s.c.): 4 % E2; Uterus Weight % E2 (uterus of infant rats [2]; 0.01 mg/kg s.c.): 3 % E2; Epithelial Height % E2 (uterus of infant rats [2]; 0.1 mg/kg s.c.): 19 % E2; Uterus Weight % E2 (uterus of infant rats [2]; 0.1 mg/kg s.c.): 31 % E2; Epithelial Height % E2 (uterus of infant rats [2]; 1 mg/kg s.c.): 18 % E2; Uterus Weight % E2 (uterus of infant rats [2]; 1 mg/kg s.c.): 14 % E2; Epithelial Height % E2 (uterus of infant rats [2]; 10 mg/kg s.c.): 13 % E2; Uterus Weight % E2 (uterus of infant rats [2]; 10 mg/kg s.c.): 6 % E2; estrogenic activity relative to compound V (in words) (uterus of infant rats [2]; s.c., in the considered dose range, vs compound V): approximately half as strongly estrogenically active; estrogenic action in the uterus (in words) (uterus of infant rats [2]; s.c.): low estrogenic action; Emax (estrogen receptors): 50%; IC50 (human estrogen receptor): 0.3 nM
